In patent US8088804B2, “N-hydroxyamide derivatives possessing antibacterial activity” (Pfizer Inc., priority 2005, dated 2012):
Values after ≈ are worked out from the molar mass of the structure shown.

Assays:
H. influen. = assay: Susceptibility testing (MIC, CLSI microdilution); type: cell-based, Haemophilus influenzae; conditions: 20 h at 35° C., unit assumed
Protocol: (§1) Compounds were tested following the microdilution method of CLSI (Clinical and Laboratory Standards Institute. Methods for dilution antimicrobial susceptibility tests for bacteria that grow aerobically; Approved standard—sixth edition. CLSI document M7-A5, CLSI, Wayne, Pa. 2003). Assays were performed in sterile plastic 96-well microtiter trays with round bottom wells (Greiner).
(§2) Stock solutions of test compounds and control antibiotics were prepared at 10 mg/ml in DMSO. Serial 2-fold dilutions of each drug were performed in a microtiter plate across each row using DMSO as solvent at 100-fold the desired final concentration. Wells in columns #1-11 contain drug and column #12 was kept as a growth control for the organism with no drug. Each well in the mother plate was diluted with sterile deionized water and DMSO, mixed, and volumes of 10 μl distributed to each well in the resulting assay plates.
(§3) Stock cultures were prepared using the Microbank™ method (Pro-Lab Diagnostics) and stored at −80° C. To propagate each strain, one bead was removed from the frozen vial and aseptically streaked onto Trypticase Soy Agar (Difco) which were incubated at 35° C. Standardized inocula were prepared using the direct colony suspension method according to CLSI guidelines (Clinical and Laboratory Standards Institute. Methods for dilution antimicrobial susceptibility tests for bacteria that grow aerobically; Approved standard—sixth edition. CLSI document M7-A5, CLSI, Wayne, Pa., 2003). Isolated colonies were selected from an 18-24 hr agar plate and resuspended in 0.9% sterile saline to match a 0.5 McFarland turbidity standard using a calorimeter (Vitek) at 80% of transmitance. The suspension was used within 15 minutes of preparation.
(§4) Mueller-Hinton Broth (MHB) (Difco) was prepared at a 1.1× concentration and supplemented with Ca++ and Mg++ as recommended by CLSI. For each organism, the standardized suspension was diluted 1:180 into appropriate growth medium in a sterile reservoir. After mixing, wells in the drug-containing assay plates were inoculated with a volume of 90 μl. Thus, for each minimum inhibitory concentration (MIC) determination, each well contains a final volume of 100 μl with an inoculum size of approximately 5×10^5 colony forming units (cfu)/ml and no more than 1% DMSO.
(§5) The completed microtiter plates were incubated 20 h at 35° C. in ambient air. Optical density of each well was determined at 600 nm using a VersaMax Microplate reader (Molecular Devices, Sunnyvale, Calif.). The MIC was defined as the lowest drug concentration causing complete suppression of visible bacterial growth.

P. ae LpxC enzyme = P. ae LpxC enzyme (Pseudomonas aeruginosa, UniProt P47205); assay: Enzyme inhibition testing (fluorescamine assay); type: biochemical; conditions: read-out: ENZYME (percent inhibition); for inhibition at 0.1 µg/mL: @0.1 μg/ml; for inhibition at 0.5 µg/mL: @0.5 μg/ml
Protocol: Compounds were tested based on a published method (Wang W., 2001, Anal Biochem, 290, 338-46) with modifications. Enzyme assays were performed in the assay buffer (50 mM HEPES, pH8, 0.005% Brij, 50 μM ZnSO4, 1 mg/ml BSA) in 96-well V-bottom microtiter plates.
Stock solutions of test compounds and control antibiotics are prepared at 10 mg/ml in DMSO and are diluted in the assay buffer to 6-fold the final testing concentration. 5 μl compound dilution is distributed to the well of the assay plate. EDTA is used as positive control and the final concentration in assay is 12.5 mM.
P. ae LpxC enzyme dilution in the assay buffer is added to the compound in plate and pre-incubated with the compound at room temperature for 10 min. LpxC substrate is added to initiate the enzyme reaction and the final enzyme and substrate concentrations are 1.2 μM and 0.4 mM, respectively. The reaction continues at RT for 4 hrs before diluted with 45 μl of Borate buffer (0.4 M, pH9), followed by addition of 40 μl derivatization reagent (fluorescamine 2 mg/ml DMF). This mixture is incubated at RT for 10 min followed by addition of 150 μl DMF/H2O (1:1). The resulting solution is loaded onto Millipore filter unit (Microcon 10 k MWCO) and spun at 13 k rpm on bench top centrifuge for 15 min. 100 μl of this filtrate is transferred to a low fluorescence clear-bottom 96-well plate (Corning) and the fluorescence is detected at ex360 nm and em465 nm on a Tecan fluorescence plate reader. The percent inhibition is calculated based on EDTA produces 100% inhibition and negative control produces 100% activity.

K. pneu. = assay: Susceptibility testing (MIC, CLSI microdilution); type: cell-based, Klebsiella pneumoniae; conditions: 20 h at 35° C., unit assumed
Protocol: as §1, §2, §3, §4, §5

P. aerug. (2) = assay: Susceptibility testing (MIC, CLSI microdilution); type: cell-based, Pseudomonas aeruginosa; conditions: 20 h at 35° C., in µg/mL (unit assumed)
Protocol: as §1, §2, §3, §4, §5

P. aerug. Hypersuc = assay: Susceptibility testing (MIC, CLSI microdilution); type: cell-based, Pseudomonas aeruginosa; conditions: 20 h at 35° C., Δ efflux, hypersusceptible strain, unit assumed
Protocol: as §1, §2, §3, §4, §5

E. coli tolC = assay: Susceptibility testing (MIC, CLSI microdilution); type: cell-based, Escherichia coli; conditions: 20 h at 35° C., unit assumed
Protocol: as §1, §2, §3, §4, §5

E. coli (2) = assay: Susceptibility testing (MIC, CLSI microdilution); type: cell-based, Escherichia coli; conditions: 20 h at 35° C., in µg/mL (unit assumed)
Protocol: as §1, §2, §3, §4, §5

Sequence of P. ae LpxC enzyme (P47205 whole entry): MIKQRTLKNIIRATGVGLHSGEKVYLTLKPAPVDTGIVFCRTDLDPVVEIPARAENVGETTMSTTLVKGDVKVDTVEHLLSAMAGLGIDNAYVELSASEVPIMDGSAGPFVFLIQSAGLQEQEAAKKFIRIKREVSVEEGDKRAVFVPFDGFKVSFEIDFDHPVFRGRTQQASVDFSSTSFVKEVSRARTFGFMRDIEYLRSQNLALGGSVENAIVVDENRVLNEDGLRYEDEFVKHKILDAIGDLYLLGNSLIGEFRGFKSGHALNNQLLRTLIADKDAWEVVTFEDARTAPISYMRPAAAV

SMILES | MIC H. influen. (H. influen.) [µg/mL] | inhibition at 0.1 µg/mL (P. ae LpxC enzyme) [%] | MIC K. pneu. (K. pneu.) [µg/mL] | MIC P. aerug. (2) (P. aerug. (2)) | MIC P. aerug. Hypersuc (P. aerug. Hypersuc) [µg/mL] | MIC E. coli tolC (E. coli tolC) [µg/mL] | MIC E. coli (2) (E. coli (2)) | inhibition at 0.5 µg/mL (P. ae LpxC enzyme) [%] | inhibition at 10 µg/mL (P. ae LpxC enzyme; @10 μg/ml) [%] | inhibition at 1 µg/mL (P. ae LpxC enzyme; @1 μg/ml) [%]
CCOc1ccc(-c2ccc(C(=O)NC(C(=O)NO)C(F)(F)F)cc2)cc1 (racemic) [Compound 22, DL-4′-Ethoxy-biphenyl-4-carboxylic acid (2,2,2-trifluoro-1-hydroxycarbamoyl-ethyl)-amide] | 0.5 (≈ 1.31 µM) | < 10 | 1 (≈ 2.62 µM) | 16-32 | 0.5 (≈ 1.31 µM) | 0.25 (≈ 0.654 µM) | 2 |  |  | 
O=C(NC(C(=O)NO)C(F)(F)F)c1ccc(-c2cc(F)cc(F)c2)cc1 (racemic) [Compound 23, DL-3′,5′-Difluoro-biphenyl-4-carboxylic acid (2,2,2-trifluoro-1-hydroxycarbamoyl-ethyl)-amide] | 16 (≈ 42.8 µM) | 24 | 16 (≈ 42.8 µM) | 8 | 2 (≈ 5.34 µM) | 8 (≈ 21.4 µM) | 16 |  |  | 
O=C(NC(C(=O)NO)C(F)(F)F)c1ccc(-c2ccsc2)cc1 (racemic) [Compound 24, DL-4-Thiophen-3-yl-N-(2,2,2-trifluoro-1-hydroxycarbamoyl-ethyl)-benzamide] | 8 (≈ 23.2 µM) | 13 | > 64 | 32 | 2 (≈ 5.81 µM) | 16 (≈ 46.5 µM) | >64 |  |  | 
O=C(NC(C(=O)NO)C(F)(F)F)c1ccc(-c2ccc(F)cc2)cc1 (racemic) [Compound 25, DL-4′-Fluoro-N-(1,1,1-trifluoro-3-(hydroxyamino)-3-oxopropan-2-yl)biphenyl-4-carboxamide] | 4 (≈ 11.2 µM) | 12 | 16 (≈ 44.9 µM) | 8-16 | 2 (≈ 5.61 µM) | 4 (≈ 11.2 µM) | 8 |  |  | 
CCCc1ccc(-c2ccc(C(=O)NC(CSC)C(=O)NO)cc2)cc1 (stereo in doubt) [Compound 28, (S)-N-(1-(Hydroxyamino)-3-(methylthio)-1-oxopropan-2-yl)-4′-propylbiphenyl-4-carboxamide] | > 64 | 13 | > 64 | >64 | > 64 | 32 (≈ 85.9 µM) | >64 |  |  | 
CCCc1ccc(-c2ccc(C(=O)NC(CS(C)(=O)=O)C(=O)NO)cc2)cc1 (stereo in doubt) [Compound 29, (S)-N-(1-(Hydroxyamino)-3-(methylsulfone)-1-oxopropan-2-yl)-4′-propylbiphenyl-4-carboxamide] | > 64 | 59 | 4 (≈ 9.89 µM) | >64 | 32 (≈ 79.1 µM) | ≤ 0.06 | >64 |  |  | 
CCCc1ccc(-c2ccc(C(=O)N3CC[C@H](N=[N+]=[N-])[C@H]3C(=O)NO)cc2)cc1 [Compound 1, (2S,3S)-3-Azido-N-hydroxy-1-(4′-propylbiphenylcarbonyl)pyrrolidine-2-carboxamide] | > 64 |  | > 64 | >64 | > 64 | 32 (≈ 81.3 µM) | >64 | 35 |  | 
CCCc1ccc(-c2ccc(C(=O)N3CC[C@H](NS(C)(=O)=O)[C@H]3C(=O)NO)cc2)cc1 [Compound 3, (2S,3S)-N-Hydroxy-3-(methylsulfonamido)-1-(4′-propylbiphenylcarbonyl)pyrrolidine-2-carboxamide] | > 64 |  | > 64 | >64 | > 64 | 32 (≈ 71.8 µM) | >64 | 55 |  | 
CCCc1ccc(-c2ccc(C(=O)N3CC[C@H](NC=O)[C@H]3C(=O)NO)cc2)cc1 [Compound 4, (2S,3S)-3-Formamido-N-hydroxy-1-(4′-propylbiphenylcarbonyl)pyrrolidine-2-carboxamide] | > 64 |  | > 64 | >64 | 64 (≈ 162 µM) | 32 (≈ 80.9 µM) | >64 | 69 |  | 
CCCc1ccc(-c2ccc(C(=O)N3CC[C@H](NC)[C@H]3C(=O)NO)cc2)cc1 [Compound 5] | 32 (≈ 83.9 µM) |  | > 64 | >64 | 64 (≈ 168 µM) | 32 (≈ 83.9 µM) | 64 | 29 |  | 
CCCc1ccc(-c2ccc(C(=O)N3CC[C@H](F)[C@H]3C(=O)NO)cc2)cc1 [Compound 6] | > 64 |  | 32 (≈ 86.4 µM) | >64 | 32 (≈ 86.4 µM) | 16 (≈ 43.2 µM) | >64 | 87 |  | 
CCCc1ccc(-c2ccc(C(=O)N3CC[C@@H](OC)[C@H]3C(=O)NO)cc2)cc1 [Compound 8] | 64 (≈ 167 µM) |  | > 64 | >64 | > 64 | 32 (≈ 83.7 µM) | >64 |  | 21 | 
CCCc1ccc(-c2ccc(C(=O)N3C[C@@](O)(COC)C[C@H]3C(=O)NO)cc2)cc1 [Compound 9, (2S,4R)-N,4-Dihydroxy-4-(methoxymethyl)-1-(4′-propylbiphenylcarbonyl)pyrrolidine-2-carboxamide] | > 64 |  | > 64 | >64 | 32 (≈ 77.6 µM) | > 64 | >64 |  |  | 57
